Assay results from US20150224164A1, “TREATMENT OF AUTISM SPECTRUM DISORDERS USING GLYCYL-L-2-METHYLPROLYL-L-GLUMATIC ACID” (Neuren Pharmaceuticals Limited, priority 2013, published 2015).
Where a SMILES comes first, the peptide text is derived from it.

Legend:
[1] = test system: fmr1 knockout mice; assay: Successive alleys test, fmr1 knockout mice; format: in vivo, mouse; settings: 100 mg/kg i.p. 28 days
Procedure: G-2-MePE was administered at the dose of 100 mg/kg i.p. in 0.1 ml saline, once daily for 28 days. Vehicle-treated animals were injected with 0.1 ml saline daily for 28 days. Thereafter, drug or vehicle treatments were stopped and animals were tested on successive days until all tests were completed. Finally, the animals were sacrificed for determining expression of pAkt and pERK
The successive alleys test was used to assess the effects of G-2-MePE on anxiety in the fmr1 KO mice. The apparatus consists of four successive, increasingly anxiogenic, linearly connected alleys (each succeeding alley is painted a lighter colour, has lower walls and/or is narrower than the previous alley). Animals were placed at the closed end of alley 1, facing the end wall. The latency to first enter each alley, the amount of time spent in each alley, and the number of entries into each alley was recorded during a total test time of 300 s.

[2] = test system: cortical neurons injured with okadaic acid; assay: In vitro neuroprotection, cortical cultures injured with okadaic acid (MTT); format: cell-based, rat; settings: 10 μM; okadaic acid injury; 24 hours incubation; MTT-assay
Procedure: A dam was sacrificed by CO2-treatment, and then was prepared for caesarean section. After surgery, the embryos were removed from their amniotic sacs and decapitated. The heads were placed on ice in DMEM/F12 medium for striatum and PBS+0.65% D(+)-glucose for cortex.
The two cortical hemispheres were carefully removed by spatula from the whole brain with the ventral side facing upside into a PBS+0.65% D(+)-glucose containing petri dish. Forceps were put into the rostral part (near B. olfactorius) of the cortex in order to fix the tissue and two lateral-sagittal oriented cuts were made to remove the […] and entorhinal cortices. […]
The cells were triturated once with a glass Pasteur pipette in 1 ml of Neurobasal/B27 medium and subsequently twice by using a 1 ml insulin syringe with a 22 gauge needle. […] Cells were counted and adjusted to 50,000 cells per 60 μl. […]
To cause toxic injury to neurons, we exposed neurons to 1:100 parts of okadaic acid at concentrations of 30 nM or 100 nM and 0.5 mM 3-nitropropionic acid (for cerebellar microexplants only). […] The survival rate was determined by a colorimetric end-point MTT-assay at 595 nm in a multi-well plate reader. For the cerebellar microexplants four windows (field of 0.65 mm^2) with highest cell density were chosen and cells displaying neurite outgrowth were counted.

[3] = test system: MeCP2 deficient mice; assay: Survival after oral administration (Example 11); format: in vivo, mouse; settings: 20 or 80 mg/kg daily
Procedure: Therefore, we administer G-2-MePE orally to MeCP2 deficient mice as described in US 2009/0074865. Briefly, an aqueous solution, a water-in-oil emulsion (micro-emulsion, coarse emulsion or liquid crystal), or a gel composition containing a pharmaceutically effective amount of G-2-MePE (20 or 80 mg/kg per animal) is administered daily. In control MeCP2 deficient animals, we administer saline only, and wild-type animals are used to obtain baseline data similar to the design of studies described in Example 8 above.

[4] = test system: ERK1/2; assay: Western blot of ERK and phosphorylated ERK; format: in vivo, mouse; settings: 100 mg/kg 4 weeks, 12 days after last injection
Procedure: Phosphorylated Extracellular Signal-Regulated Protein Kinase (ERK) and Protein Kinase B (Akt) expression was measured by Western blot analysis in lymphocytes from fmr1 KO and wild-type animals administered ether vehicle or G-2MePE (100 mg/kg, i.p.; 28 days) treated in the behavior experiments as previously described (Lopez Verrilli et al. 2009). ERK is a classical MAPK signal transduction protein, responsible for growth factor transduction, proliferation, cytokine response to stress and apoptosis. […]
To conduct the western blots, antibodies were used against Akt ( 1/1000) (Cell Signaling), ERK1/2 ( 1/2000) (Cell Signaling), antiphospho-Akt ( 1/1000) and antiphospho-ERK ( 1/2000) (Cell Signaling). Total Akt and ERK 1/2 protein content (phosphorylated) were evaluated by blotting membranes with antiphospho-Akt ( 1/1000) and antiphospho-ERK antibodies ( 1/2000) (Cell Signaling). Akt or ERK phosphorylation was normalized to protein content in the same sample and expressed as % of change with respect to basal conditions, considering basal levels as 100%. Protein loading was evaluated by stripping and re-blotting membranes with b-actin antibody ( 1/1000) (Sigma Chemical Co.). […]

Which results are given for C[C@@]1(C(=O)N[C@@H](CCC(=O)O)C(=O)O)CCCN1C(=O)CN [Example G-2-MePE, Glycyl-L-2-methylprolyl-L-glutamic acid] (HELM PEPTIDE1{G.[C[C@@]1(C(=O)[*:2])CCCN1[*:1]].E}$$$$V2.0)?
pattern of time spent in successive alleys [1]: reinstated the normal pattern of behavior; neuroprotection [2]: 59%; survival [3]: survival is increased substantially; phosphorylated ERK1/2 (pERK) ([4]; fmr1 KO vs vehicle, p<0.05): significantly reduced; total ERK expression levels ([4]; fmr1 KO): increase in ERK expression levels
